Results on 29 compounds are retold here after patent US20130196986A1 (priority 2010, published 2013).

In this experiment the target is T1, P2X7 receptor (Homo sapiens, UniProt Q99572).
T1 construct: stably expressing the full length P2X7 receptor; expressed in transfected cells
T1 sequence (Q99572 1-595): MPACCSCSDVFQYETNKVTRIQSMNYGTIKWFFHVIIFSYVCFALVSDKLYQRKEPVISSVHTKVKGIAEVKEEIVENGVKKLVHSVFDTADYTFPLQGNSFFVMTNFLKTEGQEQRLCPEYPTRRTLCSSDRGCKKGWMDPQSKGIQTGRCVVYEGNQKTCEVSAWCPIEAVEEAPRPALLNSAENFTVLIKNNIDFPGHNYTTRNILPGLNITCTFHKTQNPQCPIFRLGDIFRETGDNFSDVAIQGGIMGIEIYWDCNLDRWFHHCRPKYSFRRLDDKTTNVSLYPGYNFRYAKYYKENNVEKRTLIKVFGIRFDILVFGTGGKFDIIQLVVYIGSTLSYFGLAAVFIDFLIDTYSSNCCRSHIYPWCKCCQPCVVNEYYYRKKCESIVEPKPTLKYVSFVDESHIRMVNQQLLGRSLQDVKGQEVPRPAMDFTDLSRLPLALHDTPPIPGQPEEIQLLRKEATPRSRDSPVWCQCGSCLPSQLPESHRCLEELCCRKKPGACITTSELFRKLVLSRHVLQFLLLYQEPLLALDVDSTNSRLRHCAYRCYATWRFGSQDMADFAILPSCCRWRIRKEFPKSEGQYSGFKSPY
The experiment is described as follows: Ca++ flux assay (FLIPR) in P2X7-HEK-293 cell line stably expressing the full length P2X7 receptor, Bz-ATP activation. The conditions noted are these: P2X7-HEK-293 cells; agonist Bz-ATP; fluorescence as total area over 90 seconds; read-out: P2X7 Ca Flux hu IC50. The class given is cell-based. On the procedure: The ability of Triazolopyrazinone Compounds to inhibit P2X7 function can be determined in Ca^++ flux assay using a P2X7-HEK-293 cell line stably expressing the full length P2X7 receptor. The assay protocol is as described in Cheewatrakoolpong et al., Biochem. Biophys. Res. Commun. 332:17-27 (2005) with minor modification, and is as summarized hereinafter. Briefly, cells were plated in poly-D-lysine-coated wells, and incubated at 37° C. for 24 hours. Cells were then incubated for 1 hour with a loading buffer which contains a dye sensitive to changes in Ca^++ concentration (lx Calcium Plus no wash dye from Molecular Devices, Sunnyvale, Calif.). The test compounds were added to the wells in the dye loading step. Plates containing the wells were transferred to a Fluorometric Imaging Plate Reader (Molecular Devices, Sunnyvale, Calif.). The cells were activated by the addition of the P2X7 receptor agonist 2′(3) —O-(4-benzoylbenzoyl)adenosine 5′-triphosphate (Bz-ATP from Sigma-Aldrich, St. Louis, Mo.), and the fluorescence was monitored for 90 seconds. The fluorescent signal was determined as the total area over the 90 second run time. Using this protocol, representative Triazolopyrazinone Compounds, compounds 1471 were tested. Tables 3 to 6 show the concentration at which 50% of the maximum response in the Ca^++ was inhibited (IC50) for each of the test compounds.
In the case of `Cc1c(Cl)cccc1-n1ccn2c(SCc3ccccc3SC(F)(F)F)nnc2c1=O` [Compound 52, 7-(3-chloro-2-methylphenyl)-3-(2-(trifluorornethylthio)benzylthio)-[1,2,4]triazolo[4,3-a]pyrazin-8(7H)-one], the IC50 came out at 316 nM.

`Cc1c(-n2ccn3c(SCc4ccccc4I)nnc3c2=O)cccc1C(F)(F)F` [Compound 11]: the IC50 amounted to 106 nM.

Regarding `Cc1c(-n2ccn3c(S(=O)(=O)Cc4ccccc4-c4ccc(F)cc4)nnc3c2=O)cccc1C(F)(F)F` [Compound 138, 3-((4′-fluorobiphenyl-2-yl)methylsulfonyl)-7-(2-methyl-3-(trifluoromethyl)phenyl)-[1,2,4]triazolo[4,3-a]pyrazin-8(7H)-one], the IC50 turned out to be 30.8 nM.

As to `Cc1c(Cl)cccc1-n1ccn2c(SC(=O)N(C)c3ccccc3)nnc2c1=O` [Compound 50, S-7-(3-chloro-2-methylphenyl)-8-oxo-7,8-dihydro-[1,2,4]triazolo[4,3-a]pyrazin-3-yl methyl(phenyl)carbamothioate], the IC50 was determined as 6530 nM.

As for `O=c1c2nnc(SCc3ccccc3)n2ccn1-c1cccc(C(F)(F)F)c1F` [Compound 59, 3-(benzylthio)-7-(2-fluoro-3-(trifluoromethyl)phenyl)-[1,2,4]triazolo[4,3-a]pyrazin-8(7H)-one], the IC50 turned out to be 457 nM.

Take `O=c1c2nnc(SC(c3ccccc3)c3ccccc3)n2ccn1-c1cccc(C(F)(F)F)c1Cl` [Compound 25, 3-(benzhydrylthio)-7-(2-chloro-3-(trifluoromethyl)phenyl)-[1,2,4]triazolo[4,3-a]pyrazin-8(7H)-one]: the IC50 is 41.7 nM.

As for `Cc1c(-n2ccn3c(S(=O)(=O)Cc4ccccc4Oc4ccccc4)nnc3c2=O)cccc1C(F)(F)F` [Compound 153, 7-(2-methyl-3-(trifluoromethyl)phenyl)-3-(2-phenoxybenzylsulfonyl)-[1,2,4]triazolo[4,3-a]pyrazin-8(7H)-one], the IC50 amounted to 51.5 nM.

Regarding `COc1cccc(-c2ccccc2CS(=O)(=O)c2nnc3c(=O)n(-c4cccc(C(F)(F)F)c4C)ccn23)c1` [Compound 146, 3-((3′-methoxybiphenyl-2-yl)methylsulfonyl)-7-(2-methyl-3-(trifluoromethyl)phenyl)-[1,2,4]triazolo[4,3-a]pyrazin-8(7H)-one], the IC50 was determined as 47 nM.

Regarding `Cc1c(-n2ccn3c(S(=O)(=O)CC(=O)c4ccccc4)nnc3c2=O)cccc1C(F)(F)F` [Compound 163, 7-(2-methyl-3-(trifluoromethyl)phenyl)-3-(2-oxo-2-phenylethylsulfonyl)-[1,2,4]triazolo[4,3-a]pyrazin-8(7H)-one], the IC50 amounted to 3110 nM.

As to `Cc1c(-n2ccn3c(SCc4ccccc4-c4cccs4)nnc3c2=O)cccc1C(F)(F)F` [Compound 23, 7-(2-methyl-3-(trifluoromethyl)phenyl)-3-(2-(thiophen-2-yl)benzylthio)-[1,2,4]triazolo[4,3-a]pyrazin-8(7H)-one], the 50% inhibitory concentration (IC50) is 40.4 nM.

Consider `COc1ccc(CSc2nnc3c(=O)n(-c4cccc(Cl)c4C)ccn23)cc1` [Compound 113, 7-(3-chloro-2-methylphenyl)-3-(4-methoxybenzylthio)-[1,2,4]triazolo[4,3-a]pyrazin-8(7H)-one], for which the IC50 is 5650 nM.

As to `Cc1cccc(-c2ccccc2CSc2nnc3c(=O)n(-c4cccc(C(F)(F)F)c4C)ccn23)c1` [Compound 5, 7-(2-methyl-3-(trifluorornethyl)phenyl)-3-((3'-methylbiphenyl-2-yl)methylthio)-[1,2,4]triazolo[4,3-a]pyrazin-8(7H)-one], the half-maximal inhibitory concentration (IC50) was found to be 30.4 nM.

As for `Cc1c(Cl)cccc1-n1ccn2c(SCc3cc(Cl)cc(Cl)c3)nnc2c1=O` [Compound 101, 7-(3-chloro-2-methylphenyl)-3-(3,5-dichlorobenzylthio)-[1,2,4]triazolo[4,3-a]pyrazin-8(7H)-one], the IC50 was found to be 167 nM.

As for `O=c1c2nnc(S(=O)(=O)Cc3ccccc3)n2ccn1-c1cccc(C(F)(F)F)c1Cl` [Compound 127, 3-(benzylsulfonyl)-7-(2-chloro-3-(trifluoromethyl)phenyl)-[1,2,4]triazolo[4,3-a]pyrazin-8(7H)-one], the IC50 came out at 16.3 nM.

`Cc1c(-n2ccn3c(SCc4ccccc4C(C)(C)C)nnc3c2=O)cccc1C(F)(F)F` [Compound 18, 3-(2-tert-butylbenzylthio)-7-(2-methyl-3-(trifluoromethyl)phenyl)-[1,2,4]triazolo[4,3-a]pyrazin-8(7H)-one]: the IC50 stood at 56.9 nM.

As to `O=c1c2nnc(SCc3ccccc3)n2ccn1-c1cccc(F)c1Cl` [Compound 65, 3-(benzylthio)-7-(2-chloro-3-fluorophenyl)-[1,2,4]triazolo[4,3-a]pyrazin-8(7H)-one], the IC50 is 189 nM.

Take `Cc1onc(-c2ccccc2)c1CSc1nnc2c(=O)n(-c3cccc(C(F)(F)F)c3C)ccn12` [Compound 17, 7-(2-methyl-3-(trifluoromethyl)phenyl)-3-((5-methyl-3-phenylisoxazo1-4-yl)methylthio)-[1,2,4]triazolo[4,3-a]pyrazin-8(7H)-one]: the IC50 came out at 543 nM.

Take `CCc1ccccc1CSc1nnc2c(=O)n(-c3cccc(Cl)c3C)ccn12` [Compound 35, 7-(3-chloro-2-methylphenyl)-3-(2-ethylbenzylthio)-[1,2,4]triazolo[4,3-a]pyrazin-8(7H)-one]: the IC50 was 213 nM.

In the case of `Cc1c(-n2ccn3c(SCc4ccccc4-c4ccc(Cl)cc4)nnc3c2=O)cccc1C(F)(F)F` [Compound 9, 3-((4′-chlorobiphenyl-2-yl)nrethylthio)-7-(2-methyl-3-(trifluoromethyl)phenyl)-[1,2,4]triazolo[4,3-a]pyrazin-8(7H)-one], the IC50 was found to be 102 nM.

In the case of `O=c1c2nnc(SCc3ccccc3)n2ccn1-c1cccc(C(F)(F)F)c1Cl` [Compound 61, 3-(benzylthio)-7-(2-chloro-3-(trifluoromethyl)phenyl)-[1,2,4]triazolo[4,3-a]pyrazin-8(7H)-one], the IC50 came out at 44.9 nM.

On to `Cc1c(-n2ccn3c(SC(C)c4ccccc4)nnc3c2=O)cccc1C(F)(F)F` (centres unmarked) [Compound 62, 7-(2-methyl-3-(trifluoromethyl)phenyl)-3-(1-phenylethylthio)-[1,2,4]triazolo[4,3-a]pyrazin-8(7H)-one], for which the IC50 amounted to 57.5 nM.

As to `Cc1c(Cl)cccc1-n1ccn2c(SCc3c(F)cccc3F)nnc2c1=O` [Compound 105, 7-(3-chloro-2-methylphenyl)-3-(2,6-difluorobenzylthio)-[1,2,4]triazolo[4,3-a]pyrazin-8(7H)-one], the IC50 was found to be 389 nM.

As for `Cc1c(-n2ccn3c(SCc4cccc(F)c4Cl)nnc3c2=O)cccc1C(F)(F)F` [Compound 13, 3-(2-chloro-3-fluorobenzylthio)-7-(2-methyl-3-(trifluoromethyl)phenyl)-[1,2,4]triazolo[4,3-a]pyrazin-8(7H)-one], the IC50 amounted to 130 nM.

Turning to `Cc1c(-n2ccn3c(S(C)(=O)=O)nnc3c2=O)cccc1C(F)(F)F` [Compound 165, 7-(2-methyl-3-(trifluoromethyl)phenyl)-3-(methylsulfonyl)-[1,2,4]triazolo[4,3-a]pyrazin-8(7H)-one], the IC50 is 5680 nM.

With `O=c1c2nnc(S(=O)(=O)Cc3cccc4ccccc34)n2ccn1-c1cccc(C(F)(F)F)c1Cl` [Compound 145, 7-(2-chloro-3-(trifluoromethyl)phenyl)-3-(naphthalen-1-ylmethylsulfonyl)-[1,2,4]triazolo[4,3-a]pyrazin-8(7H)-one], the IC50 worked out at 47.9 nM.

Turning to `Cc1c(-n2ccn3c(SCc4ccccc4)nnc3c2=O)cccc1C(F)(F)F` [Compound 93, 3-(benzylthio)-7-(2-methyl-3-(trifluoromethyl)phenyl)-[1,2,4]triazolo[4,3-a]pyrazin-8(7H)-one], the IC50 was determined as 38.2 nM.

Turning to `[2H]c1c([2H])c([2H])c(CSc2nnc3c(=O)n(-c4cccc(Cl)c4C)ccn23)c([2H])c1[2H]` [Compound 33], the IC50 worked out at 85.7 nM.

In the case of `Cc1c(-n2ccn3c(S(=O)(=O)Cc4cccs4)nnc3c2=O)cccc1C(F)(F)F` [Compound 122, 7-(2-methyl-3-(trifluoromethyl)phenyl)-3-(thiophen-2-ylmethylsulfonyl)-[1,2,4]triazolo[4,3-a]pyrazin-8(7H)-one], the IC50 is 12.3 nM.

For the compound `[2H]c1c([2H])c([2H])c(C([2H])([2H])Sc2nnc3c(=O)n(-c4cccc(Cl)c4C)ccn23)c([2H])c1[2H]` [Compound 34], the IC50 was found to be 148 nM.

As a reminder, the IC50 is the concentration that inhibits the measured activity by half.
